Laboratory results as given in patent US11660280B2, “Treatment of drug resistant gliomas” (OKLAHOMA MEDICAL RESEARCH FOUNDATION, priority 2017, dated 2023).

Experiments:
rat F98 gliomas = test: Microarray analysis of OKN-007-treated vs untreated rat F98 gliomas; type: in vivo
Experimental: (§1) Mice and Treatments. Animal studies were conducted in accordance to the OMRF IACUC (Institutional Animal Care and Use Committee) policies, which follow NIH guidelines. For the F98 rat glioma cell implantation model, F98 cells (10^5 in 10-μ1 volume) were intracerebrally implanted with a stereotaxic device (2 mm lateral and 2 mm anterior to the bregma, and at a 3 mm depth) in a total of 15 Fischer 344 rats (male 200-250 gm). The animals were divided into two groups once tumors reached 10-20 mm^3 in volume (as determined by MRI): OKN-007 treated (n=8) and untreated (UT) (n=7) groups. Rats were treated until tumors reached 200-250 mm^3 in volume or for a total of 4-6 weeks. For the G55 GBM cell implantation model, two-month-old male nude mice (Hsd:Athymic Nude-Foxnlnu mice; Harlan Inc., Indianapolis, IN) were implanted intracerebrally with human G55 xenograft cells (1×10^6) per mL suspended in 4 μL in cell culture media of 1% agarose solution. Once tumors reached 10-15 mm^3 (determined via MRI), mice were either treated daily with OKN-007 in the drinking water (150 mg/kg; 0.20% w/v for a 20 g mouse), or every 3 days with TMZ (30 mg/kg). OKN-007 was dissolved in water and made fresh every 2 days. Water bottles were weighed, and the amount of OKN-007 consumed per mouse was determined. […] The average intake of OKN-007 was approximately 140-150 mg/kg/day/mouse. TMZ was dissolved in 5% DMSO and 5% solutol-15 in sterile saline and administered via gavage. Mice were treated until the tumors reached 100-150 mm^3 or for a total of 4-6 weeks. All groups were stratified to ensure that tumor sizes were similar before initiation of treatment.
RNA isolation and preparation. For the rat F98 glioma study, all rats were euthanized after the last MRI examination. The brain of each animal was removed, and snap frozen in liquid nitrogen, before storage in a −80° C. freezer. Total RNA from all tumor tissues from all treatment groups was purified with an RNeasy Mini Kit (Qiagen), and quantified by spectrophotometry (Nanodrop). cDNA was synthesized using SuperScript IV Reverse Transcriptase Kit (Invitrogen).
Microarray analysis. The Illumina TotalPrepTM RNA Amplification Kit was used for labeling cRNA (Ambion, Austin, Tex.), as previously described (Griffins et al., 2009). Four×four treated/untreated samples were profiled using Affymetrix RaGene-1_0-st-v1 microarrays. Exon-level-summarized measures were quantile-normalized and tested for differential expression using Significance Analysis of Microarrays (SAM, [PMID: 11309499]) at a false discovery rate (FDR) <40% and […]. Functional enrichment analysis was performed using Ingenuity Pathways Analysis (IPA) (Ingenuity® Systems, world-wide-web at ingenuity.com).

Solubility in water = type: physicochemical; conditions: free acid
MGMT = test: ELISA protein level in human GBM cell lysates; type: cell-based
Experimental: ELISA for HIF-1a, MPG and MGMT. Protein expressions were assessed in all six glioma cell lines for all four groups of treatment (cell alone, cells with TMZ, cells with OKN, cells with combined OKN and TMZ). Cells were lysed before assaying. In brief, cells were washed by cold PBS gently, and then detached with trypsin, and collected by centrifugation at 1,000×g for 5 minutes. Then, cells were washed three times in cold PBS, then suspended in fresh lysis buffer. Lysates were centrifuged at 1,500×g for 10 minutes at 2-8° C. to remove cellular debris.
The assay is based on the sandwich ELISA principle. Each well of the supplied microtiter plate has been pre-coated with a target specific capture antibody. Standards or samples are added to the wells and the target antigen binds to the capture antibody. Unbound Standard or sample is washed away. A biotin-conjugated detection antibody is then added which binds to the captured antigen. Unbound detection antibody is washed away. An Avidin-Horseradish Peroxidase (HRP) conjugate is then added which binds to the biotin. Unbound Avidin-HRP conjugate is washed away. A TMB substrate is then added which reacts with the HRP enzyme resulting in color development. A sulfuric acid stop solution is added to terminate color development reaction and then the optical density (OD) of the well is measured at a wavelength of 450 nm±2 nm. The OD of an unknown sample can then be compared to an OD standard curve generated using known antigen concentrations in order to determine its antigen concentration.
The antigen concentration determined from ELISA was then normalized to the total protein concentration of each cell lysate in order to have comparison between groups. ELISA Kits for N-Methylpurine DNA Glycosylase (MPG) and for Hypoxia Inducible Factor 1 Alpha (HIF1a) were purchased from CLOUD-CLONE CORP.(CCC) and for Human MGMT from LifeSpan Biosciences, Inc.

human G55 xenograft = test: Orthotopic G55 human GBM xenograft in nude mice (survival, MRI tumor volume, perfusion rCBF); type: in vivo, mouse
Experimental: Mice and Treatments. Animal studies were conducted in accordance to the OMRF IACUC (Institutional Animal Care and Use Committee) policies, which follow NIH guidelines. Two-month-old male nude mice (Hsd:Athymic Nude-Foxnlnu mice; Harlan Inc., Indianapolis, Ind.) were implanted intra-cerebrally with human G55 xenograft cells (1×10^7) per mL suspended in 4 μL in cell culture media of 1% aragose solution. Once tumors reached 10-15 mm^3 (determined via MRI), mice were either treated every 3 days with OKN-007 (150 mg/kg; via drinking water continuously) or TMZ (30 mg/kg via gavage every 3 days). TMZ was dissolved in 5% DMSO and 5% solutol-15 in sterile saline. Mice were treated until the tumor reached 100-150 mm^3 or for a total of up to 60 days after tumors were detected by MRI (>5 mm^3).
MRI. MRI experiments were performed on a Bruker Bio-spec 7.0 Tesla/30-cm horizontal-bore magnet imaging system. […] T2-weighted imaging was obtained, and tumor volumes were calculated from MRI datasets.
Perfusion imaging. In order to assess microvascular alterations associated with tumor capillaries, the perfusion imaging method, arterial spin labeling (ASL), was used. Perfusion maps were obtained on a single axial slice of the brain located on the point of the rostro-caudal axis where the tumor has the largest cross-section. Five regions of interest (ROIs) were manually outlined around the tumor, and appropriate ROIs were also taken from the contralateral side of the brain for comparison purposes. To calculate the differences in rCBF values, tumor rCBF values were obtained at late (days 18-26 following intracerebral implantation of cells for untreated mice) and early (days 10-13 following cell implantation) tumor stages, and normalized to rCBF values in the contralateral brain region of corresponding animals.
Statistical analyses. Survival curves were analyzed using Kaplan-Meier curves. Tumor volumes, changes in normalized rCBF, and LBP levels were compared by two-way ANOVA with multiple comparisons. Data were represented as mean±SD, and P-values of either *0.05, **0.01, ***0.001, and ****0.0001 were considered statistically significant.
Mice and Treatments. Animal studies were conducted in accordance to the OMRF IACUC (Institutional Animal Care and Use Committee) policies, which follow NIH guidelines. […] Once tumors reached 10-15 mm^3 (determined via MRI), mice were either treated daily with OKN-007 in the drinking water (150 mg/kg; 0.20% w/v for a 20 g mouse), or every 3 days with TMZ (30 mg/kg). […] Water bottles were weighed, and the amount of OKN-007 consumed per mouse was determined. […]

[1] = tested on: LBP (lipopolysaccharide binding protein); test: LBP ELISA in tumor tissue and blood serum of G55 glioma-bearing mice; type: in vivo, mouse
Experimental: Lipopolysaccharide binding protein (LBP) ELISA assay. The LBP ELISA kit (Antibodies-Online.com; ABIN370808) is specific for mouse LBP levels in serum, plasma and tissue samples. This is a colorimetric assay that was read on a micro plate reader for measurement of absorbance at 450/620 nm. LBP concentrations were calculated from a standard curve and multiplied by appropriate dilution factors.

[2] = in vivo; cited from earlier work
TGFβ1 = TGFβ1 protein levels (IHC, ELISA) in F98 gliomas; type: in vivo, rat
Experimental: as §1, with “TMZ was dissolved in 5% DMSO and 5% solutol-15 in sterile saline and administered via gavage. Mice were treated until the tumors reached 100-150 mm^3 or for a total of 4-6 weeks. All groups were stratified to ensure that tumor sizes were similar before initiation of treatment.” left out

[3] = microarray, F98 gliomas, OKN treatment vs UT

**Q.** Which “number of down-regulated genes with TGFβ1 as master (upstream) regulator” value (rat F98 gliomas; Upstream Regulator Analysis, IPA, rat F98 treated gliomas vs untreated tumors) does the source give for `CC(C)(C)[N+]([O-])=Cc1ccc(S(=O)(=O)O)cc1S(=O)(=O)O` [OKN-007, 2,4-disulfonyl phenyl tert-butyl nitrone] here?
**A.** 57 genes

**Q.** What about the TGFβ1 downregulation (rat F98 gliomas; microarray, F98 gliomas treated with OKN-007 vs UT) of the same molecule?
**A.** ~2 fold

**Q.** And the “number of genes upregulated” value (rat F98 gliomas; [3])?
**A.** 3 genes

**Q.** What about the “number of genes with at least one exon significantly downregulated” value (rat F98 gliomas; [3]) of the same molecule?
**A.** 384 genes

**Q.** What about the “decrease in gene expression for LBP” value (rat F98 gliomas; microarray, rat F98 glioma model, treated vs untreated tumors) of the same molecule?
**A.** > 2 fold

**Q.** What about the solubility in water (Solubility in water) of the same molecule?
**A.** greater than 1 gram/ml

**Q.** What about the “ELISA protein level MGMT” value (MGMT; G55 cells, UT 0.37) of the same molecule?
**A.** 0.31 ng/mg cell lysate

**Q.** And the “ELISA protein level MGMT” value (MGMT; LN18 cells, UT 1.23)?
**A.** 0.98 ng/mg cell lysate

**Q.** And the “ELISA protein level MGMT” value (MGMT; LN229 cells, UT 0.67)?
**A.** 0.69 ng/mg cell lysate

**Q.** And the “ELISA protein level MGMT” value (MGMT; T98 cells, UT 0.62)?
**A.** 0.84 ng/mg cell lysate

**Q.** What about the “ELISA protein level MGMT” value (MGMT; U138 cells, UT 0.77) of the same molecule?
**A.** 0.75 ng/mg cell lysate

**Q.** And the “ELISA protein level MGMT” value (MGMT; U251 cells, UT 0.92)?
**A.** 0.91 ng/mg cell lysate

**Q.** And the “percent of treated mice alive 60 days following tumor detection” value (human G55 xenograft; G55 glioma-bearing nude mice, OKN-007 150 mg/kg in drinking water, TMZ 30 mg/kg gavage every 3 days, n=5)?
**A.** 20%

**Q.** And the “tumor volumes compared to UT mice” value (human G55 xenograft; MRI at 19-22 days following tumor detection, G55 glioma-bearing mice)?
**A.** significantly decreased tumor volumes

**Q.** And the “tumor volumes compared to UT mice” value (human G55 xenograft; last MRI time-point for each treatment group)?
**A.** no significant difference in tumor volumes

**Q.** What about the “tumor perfusion rates compared to TMZ treatment” value (human G55 xenograft; perfusion MRI, no significant differences between treated groups) of the same molecule?
**A.** more normalized perfusion rates

**Q.** And the “LBP levels in tumor tissues compared to UT mice” value [1]?
**A.** significantly less

**Q.** And the “crossing of the blood brain barrier” value [2]?
**A.** can readily cross the BBB

**Q.** What about the “TGFβ1 protein levels by immunohistochemistry compared to UT tumors” value (TGFβ1; F98 gliomas) of the same molecule?
**A.** substantially reduced

**Q.** And the “TGFβ1 protein expression by ELISA compared to UT tumors” value (TGFβ1; F98 tumor tissue lysates, p<0.001)?
**A.** significantly decreased
